This note sets out measurements from paper PMC7894522, “Structure Based Design of Bicyclic Peptide Inhibitors of RbAp48” (Angewandte Chemie (International Ed. in English), 2020).

Test [1] has as its target T1, RbAp48 (Homo sapiens, UniProt Q09028). Briefly: Pull-down with peptides immobilized on DBCO beads from MDA-MB-231 nuclear lysate. Format: binding. Set-up: RbAp48 was pulled down from nuclear lysate of MDA‐MB‐231 cells; endogenous in cells; host or cells: MDA-MB-231 nuclear lysate. The settings on record: 60 µM probe immobilized on DBCO beads, 1.5 h at 4°C, immunoblot. The procedure: To evaluate whether peptide 33 interacts with RbAp48 in a more complex biological environment we modified the N‐terminus with a linker bearing a terminal azide (47, see Table 1, supplemental Figure 4). The peptides were immobilized on DBCO‐beads via copper‐free click chemistry and exposed to MDA‐MB‐231 nuclear lysate. As a negative control an azide modified scrambled peptide sequence (48) with affinity >10 μM was used.
Nuclear lysate of MDA-MB-231 cells was prepared using a Subcellular Protein Fractionation Kit (Thermo Scientific) according to the manufacturer’s instructions. DBCO agarose beads (100 µl) were washed with buffer A ( 50 mM Tris-HCl, 150 mM NaCl, 1 mM DTT, 1% (v/v) Triton X -100, pH 7.4, cOmplete™ EDTA-free Protease Inhibitor Cocktail ) three times. The beads were incubated overnight at 4°C in a solution containing either 47, 48 or no probe (500 µl containing 60 µM probe). After immobilization, the beads were washed again with buffer A three times followed by incubation with the nuclear lysate (500 µl) and incubated for 1.5 h at 4°C. After incubat ion beads were washe d with buffer B (50 mM Tris-HCl, 500 mM NaCl, 1 mM DTT, 1% (v/v) Triton X -100, pH 7.4, cOmplete™ EDTA - free Protease Inhibitor Cocktail ) three times. Protein was eluted by adding SDS sample buffer and loaded the mixture directly on SDS -page gel for analysis. […]
For orientation: A western blot detects proteins with antibodies after separation by electrophoresis.

In test [2] the target is T1, RbAp48. Briefly: Competitive fluorescence polarization (FP) assay using complex of peptide 1 and RbAp48. The test is classed as binding. Set-up: Full length RbAp48 was cloned; His tag followed by 3C cleavage site (N, cleaved yes); made in house; host or cells: Sf9 insect cells. An outline of the steps: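 Sf9-expressed full-length RbAp48 (tag cleaved), 15 nM, displaced from 1 nM fluorescent peptide tracer in 20 mM Tris-HCl pH 7.5, 150 mM NaCl, 0.01% Tween-20. Read by FP (ex 485/em 535 nm) after 30 min at room temperature.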
For orientation: Polarisation of emitted light reports the rotation of a fluorescent probe.

The next test concerns U2OS cells. Briefly: Morphological cell painting assay. The settings on record: U2OS cells, 20 h, 579 parameters, fraction of significantly changed parameters vs DMSO; 10, 3 or 1 µM. Format: cell-based. An excerpt:
Encouraged by the promising results from the pulldown experiment, and in order to get insight into bioactivity and possible mode of action, we analyzed peptide 33 in a morphological cell painting assay. The cell painting assay is a target agnostic assay which determines a cells morphological profile after treatment with a compound of interest and compares it to the profiles of a set of reference compounds. ^[22] By identifying reference compounds with a similar profile a hypothesis of the compounds mode of action can be generated based on their annotated targets. ^[23] U2OS cells were treated with our compound and 579 parameters were analyzed. […] We therefore synthesized a variant modified with an N‐terminal TAT sequence to enhance its permeability (compound 49, see Table 1 and Supplemental Figure 4). ^[24] […] Applying compound 49 to the cell painting assay led to an induction of 5.9 % and the corresponding profile was compared to the set of 3000 reference compounds. […] To validate this hypothesis, we exposed U2OS cells to compound 49 and evaluated the levels of p53 by Western blot. […] The exact mechanism by which the compounds elevate levels of p53 requires further investigation. However, it has previously been shown that the NuRD complex, of which RbAp48 is a core component, is able to deacetylate p53 and thereby modulate its stability. ^[26] The effect is mediated by the MTA family of proteins from which the compounds described here are derived. […]
The described assay follows closely the method described by Bray et al. Initially, 5 µl U2OS medium were added to each well of a 384 -well plate (PerkinElmer CellCarrier -384 Ultra). Subsequently, U2OS cell were seeded with a density of 1600 cells per well in 20 µl medium. The plate was incubated for 10 min at the ambient temperatu re, followed by an a dditional 4 h incubation (37 °C, 5 % CO2). Compound treatment was performed with the Echo 520 acoustic dispenser (Labcyte) at final concentrations of 10 µM, 3 µM or 1 µM. Incubation with compound was performed for 20 h (37 °C, 5 % CO2). Subsequently, mitoc hondria were stained with Mito Tracker Deep Red (Thermo Fisher Scientific, Cat. No. M22426). The Mito Tracker Deep Red stock solution (1 mM) was diluted to a final concentration of 100 nM in prewarmed medium. The medium was removed fr om the plate leaving 1 0 µl residual volume and 25 µl of the Mito Tracker solution were added to each well. 22 The plate was incubated for 30 min in darkness (37 °C, 5 % CO2). To fix the cells 7 µl of 18.5 % formaldehyde in PBS were added, resulting in a fi nal formaldehyde conce ntration of 3.7 %. Subsequently, the plate was incubated for another 20 min in darkness (RT) and washed three times with 70 µl of PBS. (Biotek Washer Elx405). Cells were permeabilized by addition of 25 µl 0.1 % Triton X -100 to each well, followed by 15 min incubation (RT) in darkness. The cells were washed three times with PBS leaving a final volume of 10 µl. To each well 25 µl of a staining solution were added, which contains 1 % BSA, 5 µl/mL Phalloidin (Thermo Fisher Scientific, A123 81), 25 µg/ml Concanav alin A (Thermo Fisher Scientific, Cat. […]
conjugate (Thermo Fisher Scientific, Cat. No. W11262) and […] SYTO 14 solution (Thermo Fisher Scientific, Cat. No. S7576). The plate is incubated for 30 min (RT) in darkness and washed three times with 70 µl PBS. After the final washing step the PBS was not aspirated. The plates were sealed and centrifuged for 1 min at 500 rpm.
The plates were prepare d in triplicates with shifted layouts to reduce plate effects and imaged using a Micro XL High-Content Screening System (Molecular Devices) in 5 channels (DAPI: Ex350 -400/ Em410- […]
The generated images were processed with the CellProfiler package (https://cellprofiler.org/, version 3.0.0) on a computing cluster of the Max Planck Society to extract 1716 cell features (parameters) per microscope site. The data was then further aggregated as medians per well (9 sites -> 1 well), then […]

For the next test, the system named is p53. Briefly: p53 expression level assay (western blot). Particulars: U2OS cells, 10 µM, 24 h, p53 vs alpha tubulin, two biological replicates. Format: cell-based. The source says: Encouraged by the promising results from the pulldown experiment, and in order to get insight into bioactivity and possible mode of action, we analyzed peptide 33 in a morphological cell painting assay. The cell painting assay is a target agnostic assay which determines a cells morphological profile after treatment with a compound of interest and compares it to the profiles of a set of reference compounds. ^[22] By identifying reference compounds with a similar profile a hypothesis of the compounds mode of action can be generated based on their annotated targets. ^[23] U2OS cells were treated with our compound and 579 parameters were analyzed. […] We therefore synthesized a variant modified with an N‐terminal TAT sequence to enhance its permeability (compound 49, see Table 1 and Supplemental Figure 4). ^[24] […] Applying compound 49 to the cell painting assay led to an induction of 5.9 % and the corresponding profile was compared to the set of 3000 reference compounds. […] To validate this hypothesis, we exposed U2OS cells to compound 49 and evaluated the levels of p53 by Western blot. […]
U2OS cells were incubated with 10 µM compound 49, 50 or DMSO (DMSO 0.5%) for 24 h followed by lysis for western blotting analysis. p53 ex pression was monitored using fluorescent antibody. Signal ration between p53 and loading control (alpha tubulin) was measured. […]

[3] abbreviates: Table 1, competitive FP, tracer peptide 1 1 nM, RbAp48 15 nM, 20 mM Tris-HCl, 150 mM NaCl, 0.01% Tween-20, pH 7.5, 30 min room temperature, lower limit set by 15 nM protein, read-out: IC50.

Like-named read-outs stand apart in the source and are kept apart here. Starred links: 1 amine or outer side, 2 acyl side, 3 side chain; linkers in the order of their positions; H or OH if unused. Positions of bridges follow the written chain, without caps; N, C: chain ends. Residues, ends and D or L forms follow the SMILES beside them. *: point of attachment. TBMB = c1c(C[*:1])cc(C[*:3])cc1C[*:2]; X1 = [N-]=[N+]=NCCOCCOCCOCC(=O)*

T1 sequence (Q09028 whole entry): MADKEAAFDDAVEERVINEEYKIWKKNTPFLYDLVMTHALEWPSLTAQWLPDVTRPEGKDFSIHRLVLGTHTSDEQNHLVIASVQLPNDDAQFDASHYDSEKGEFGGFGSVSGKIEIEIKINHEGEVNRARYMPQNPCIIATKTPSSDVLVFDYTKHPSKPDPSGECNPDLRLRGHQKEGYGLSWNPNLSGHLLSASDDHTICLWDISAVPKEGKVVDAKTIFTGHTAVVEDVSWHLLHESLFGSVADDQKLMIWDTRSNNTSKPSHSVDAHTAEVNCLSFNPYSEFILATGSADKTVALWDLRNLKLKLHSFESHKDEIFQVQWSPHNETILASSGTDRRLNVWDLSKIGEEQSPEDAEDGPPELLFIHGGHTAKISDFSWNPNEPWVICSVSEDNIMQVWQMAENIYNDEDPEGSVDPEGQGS

`C[C@H](NC(=O)[C@@H]1CSCc2cc3cc(c2)CSC[C@H](NC(=O)[C@H](CCCNC(=N)N)NC(=O)[C@H](CCCCN)NC(=O)[C@H]([C@@H](C)O)NC(=O)[C@@H](NC(=O)COCCOCCOCCN=[N+]=[N-])CSC3)C(=O)N[C@@H](C)C(=O)N[C@@H](CCCNC(=N)N)C(=O)N[C@@H](CCCNC(=N)N)C(=O)N2CCC[C@H]2C(=O)N[C@@H](Cc2ccc(O)cc2)C(=O)N[C@@H](CCCCN)C(=O)N2CCC[C@H]2C(=O)N1)C(N)=O` [Peptide 47] (X1-CTKRCARRPYKPCA-NH2; linker 1-5-13 via TBMB; N-terminus assumed): the “enrichment of RbAp48 in pull-down” value at RbAp48 [1] was “successfully able to enrich RbAp48”. The IC50 at RbAp48 [2] (setting [3]) came out at 13.9 ± 5.6 nM.
For `C[C@@H]1NC(=O)[C@H](CCCNC(=N)N)NC(=O)[C@@H]2CCCN2C(=O)[C@@H](NC(=O)COCCOCCOCCN=[N+]=[N-])CSCc2cc3cc(c2)CSC[C@@H](C(=O)N[C@@H](CCCCN)C(N)=O)NC(=O)[C@H](CCCNC(=N)N)NC(=O)[C@@H]2CCCN2C(=O)[C@H](C)NC(=O)[C@H]([C@@H](C)O)NC(=O)[C@H](CCCCN)NC(=O)[C@H](Cc2ccc(O)cc2)NC(=O)[C@H](CCCNC(=N)N)NC(=O)[C@H](CSC3)NC1=O` [Peptide 48] (X1-CPRACRYKTAPRCK-NH2; linker 1-5-13 via TBMB; N-terminus assumed), on RbAp48 [1], the “enrichment of RbAp48 in pull-down” value is “no interaction”. Besides, the IC50 at RbAp48 [2] (setting [3]) was greater than 10000 nM; on RbAp48 [2] (competitive FP assay, read-out: IC50 / affinity) it was greater than 10000 nM.
`C[C@H](NC(=O)[C@@H]1CSCc2cc3cc(c2)CSC[C@H](NC(=O)[C@H](CCCNC(=N)N)NC(=O)[C@H](CCCCN)NC(=O)[C@H]([C@@H](C)O)NC(=O)[C@@H](NC(=O)CNC(=O)[C@H](CCC(N)=O)NC(=O)[C@@H]2CCCN2C(=O)[C@H](CCCNC(=N)N)NC(=O)[C@H](CCCNC(=N)N)NC(=O)[C@H](CCCNC(=N)N)NC(=O)[C@H](CCC(N)=O)NC(=O)[C@H](CCCNC(=N)N)NC(=O)[C@H](CCCNC(=N)N)NC(=O)[C@H](CCCCN)NC(=O)[C@H](CCCCN)NC(=O)[C@H](CCCNC(=N)N)NC(=O)CN)CSC3)C(=O)N[C@@H](C)C(=O)N[C@@H](CCCNC(=N)N)C(=O)N[C@@H](CCCNC(=N)N)C(=O)N2CCC[C@H]2C(=O)N[C@@H](Cc2ccc(O)cc2)C(=O)N[C@@H](CCCCN)C(=O)N2CCC[C@H]2C(=O)N1)C(N)=O` [Peptide 49] (H-GRKKRRQRRRPQGCTKRCARRPYKPCA-NH2; linker 14-18-26 via TBMB) gave an induction in the test with U2OS cells of 5.9%. In addition, the “levels of p53” value with p53 is on record as “increased”. On RbAp48 [2] (setting [3]), the IC50 came out at 4.4 ± 1.4 nM. Further, the “FP activity in words” value on RbAp48 [2] (competitive FP assay) is listed as “slightly more active than its parent compound 33”.
With `N=C(N)NCCC[C@H](NC(=O)CN)C(=O)N[C@@H](CCCCN)C(=O)N[C@@H](CCCCN)C(=O)N[C@@H](CCCNC(=N)N)C(=O)N[C@@H](CCCNC(=N)N)C(=O)N[C@@H](CCC(N)=O)C(=O)N[C@@H](CCCNC(=N)N)C(=O)N[C@@H](CCCNC(=N)N)C(=O)N[C@@H](CCCNC(=N)N)C(=O)N1CCC[C@H]1C(=O)N[C@@H](CCC(N)=O)C(N)=O` [Peptide 50, reference compound], the “levels of p53” value with p53 is “no increase”. Moreover, on RbAp48 [2] (setting [3]), the IC50 stood at 1240 ± 358 nM. Moreover, the “FP activity in words” value on RbAp48 [2] (competitive FP assay) is on record as “weakly inhibit the interaction”.
